Measurements from patent US20160120858A1 (ACADEMIA SINICA, priority 2014, published 2016).
“Also recorded” adds a separate entry of the source.

Experiments:
[1] = tested on: Tbr1^+/− mice; assay: Three-chamber social interaction assay, Tbr1 mice; format: in vivo, mouse; settings: 30 mg/kg, 3 hours before test
Source text: (§1) All mice were backcrossed into a C57BL/6 background, and housed and bred in a mouse vivarium at the Korea Advanced Institute of Science and Technology (KAIST, Shank2^−/−mice) and at Academia Sinica (Tbr1^+/− mice). Pups were kept with the dam until weaning at postnatal day 21. After weaning, animals were group housed in mixed-genotype groups of 3 to 5 mice per cages, and randomly subjected to electrophysiological and behavioral experiments. Animals at 3 to 5 weeks of age were used for electrophysiological experiments; male animals at 2 to 4 months of age were used for behavioral assays. For TFL-Zn staining, male animals at 8 weeks (for Shank2^−/−mice) were used. Wild-type littermates were used as controls.
(§2) The injection was performed 2 hours before (Shank2^−/− mice and wild-type littermates), or 3 hours before (Tbr1^+/− mice and wild-type littermates) behavioral assays at the discretion of the facility.
(§3) Testing was conducted in dedicated behavioral test rooms during the light phase (three-chamber test) and the dark phase (repetitive behaviors and open field test).
(§4) In short, the assay consisted of three phases of 10 minutes duration: habituation, social interaction (Stranger1 vs. Object), and social novelty recognition (Stranger 1 vs. Stranger 2). Exploration was defined as each instance in which wild-type or mutant mouse tries to sniff Object/Stranger, or orients its nose towards and come close to object/stranger. Individual movement tracks were analyzed by Ethovision 10.0 (Noldus) and modified by custom-designed software MatLab (Mathworks) to generate heat maps. Time spent in exploration was analyzed by the researcher who was blinded to the subject genotype (in Shank2 mice), or by using the Smart Video Tracking System (Panlab, in Tbr1 mice). In addition to exploration time, the preference index, which represents a numerical difference between time spent exploring the targets (Stranger1 vs. Object, or Stranger 2 vs. Stranger 1) divided by total time spent exploring both targets, as described previously.

[2] = tested on: Shank2^−/− mice; assay: Three-chamber social interaction assay, Shank2 mice; format: in vivo, mouse; settings: 30 mg/kg i.p., 2 hours prior to test
Source text: as §1, §2, §3, §4
Two hours after CQ treatment, the mice were subjected to a three-chamber social interaction test, which compares the preference of a mouse for a stranger mouse versus a novel inanimate object.

Oc1c(I)cc(Cl)c2cccnc12 [clioquinol, 5-Chloro-7-Iodo-8-Hydroxyquinoline]
Social novelty recognition ([1]; Tbr1^+/− (HT) mice): had no effect on social novelty recognition
Social novelty recognition ([1]; Tbr1^+/− (HT) mice, listed as CQ): fails to enhance social novelty recognition; also recorded: has no effect on social novelty recognition
Social novelty recognition ([1]; wild-type mice): had no effect on social novelty recognition
Social novelty recognition ([1]; wild-type mice, listed as CQ): has no effect
Social novelty recognition ([2]; Shank2^−/− (KO) mice): had no effect on social novelty recognition; also recorded: did not affect the social novelty recognition
Social novelty recognition ([2]; Shank2^−/− (KO) mice, listed as Clioquinol): has no effect on social novelty recognition
Social novelty recognition ([2]; wild-type (WT) mice): had no effect on social novelty recognition; also recorded: did not affect the social novelty recognition
Social novelty recognition ([2]; wild-type (WT) mice, listed as Clioquinol): has no effect
